# Source: paper PMC8140080, “The lexicon of antimicrobial peptides: a complete set of arginine and tryptophan sequences” (Communications Biology, 2021)
# Where a SMILES comes first, the peptide text is derived from it.
# How the values were obtained:
# [1] = tested on: S. aureus ATCC 6538; assay type: cell-based, Staphylococcus aureus
# Description: (§1) S. aureus ATCC 6538 and C. albicans ATCC 10231 were obtained from Oxoid (Basingstoke, UK), and P. aeruginosa PAO1 donated by the University of Nottingham. Bacteria were routinely grown using Mueller–Hinton broth or agar and yeast was grown using Sabaraud Dextrose broth or agar. Cultures were incubated aerobically on agar at 37 °C for 20 h or under the same conditions in broth with shaking at 200 rpm.
# (§2) Planktonic cultures were obtained by inoculating single colonies from 18–20 h old agar cultures into 10 ml of sterile broth, followed by 20-h incubation. S. aureus and P. aeruginosa assays were performed using Mueller–Hinton broth and agar and C. albicans assays were performed using Sabaraud Dextrose broth and agar. […]
# (§3) Peptide stock solutions of 800 µM were prepared by dissolving solid peptides (provided in pre-weighed aliquots by the supplier) in phosphate buffer solution (PBS) containing 5% (v/v) DMSO. […] Each polystyrene plate was then aerobically incubated at 37 °C for 18–20 h without shaking, before measuring OD600 using a spectrophotometer plate reader (Nanostar; BMG Labtech, Ayelsbury). […] The mean IC50 for each peptide was calculated from the results of four independent experiments, with a single technical replicate each. Specific activity was calculated by plotting IC50 (µM) multiplied by peptide length, against peptide length. […]
# [2] = tested on: P. aeruginosa PAO1; assay: Antimicrobial assay (IC50 and MBC), broth microdilution; assay type: cell-based, Pseudomonas aeruginosa; conditions: Fig. 1a; range assayed 0.8-400 µM; b35 words are general, printed in the P. aeruginosa morphology study
# Description: as §1, §2, §3
# [3] = tested on: P. aeruginosa; assay: Scanning electron microscopy of peptide-treated bacteria; assay type: cell-based, Pseudomonas aeruginosa; conditions: 1 h, 37 °C, ~10^7 CFU/ml in PBS, three independent experiments
# [4] = tested on: P. aeruginosa; conditions: read-out: minimum IC50; cited from earlier work
# Source text: (§4) A second general conclusion is that overall activity increases consistently with length. […] We previously reported variable activity in a group of cationic and hydrophobic AMPs based on apoE-derived AMPs, and a range of similar peptides we tested.
# [5] = tested on: S. aureus; conditions: read-out: minimum IC50; cited from earlier work
# Source text: as §4
# [6] = tested on: P. aeruginosa; assay: Atomic force microscopy of peptide-treated bacteria; assay type: cell-based, Pseudomonas aeruginosa; conditions: 100 µM peptide, 2 min exposure, 37 °C; n = 6 cells
# Description: A suspension of P. aeruginosa at ~10^7 CFU/ml in PBS was prepared as for SEM; 500 μl of this suspension was incubated with 500 μl of […] peptide (200 μM in PBS; 5% v/v DMSO) at 37 °C with shaking at 200 rpm for 45 min. As a negative control, 500 μl bacterial suspension was incubated with PBS containing 5% v/v DMSO. Samples of 50 μl were withdrawn from the suspensions at 2, 15 and 45 min for imaging by AFM. Chips were prepared by adsorbing 50 μl of poly-L-lysine onto a cleaved mica chip for 3 min. Excess poly-L-lysine was washed off by adding 10 × 200 μl aliquots of MilliQ water and excess water was removed using filter paper. Test samples were deposited onto the chips and left to adhere for 1-2 min, before further washing using 10 × 200 μl aliquots of MilliQ water, blotting off excess with filter paper, before leaving chips to air-dry overnight. Chips were scanned using a Bruker multimode 8 (Bruker, Billerica, USA) in ScanAsyst air mode. All images were taken at a resolution of 512 points per dimension unless stated otherwise, and are representative of single technical experiments. Images obtained were processed and different length measurements were performed using Gwyddion version 2.48 (http://gwyddion.net/). Measurements were taken of the long axis length, short axis length and maximum vertical height of the bacterium above the chip surface. […]
# [7] = Transmission electron microscopy of peptide aggregates; assay type: physicochemical; conditions: single independent experiment
# Description: Peptides were prepared at 800 µM in PBS with 5% v/v DMSO, and any excessively large aggregates or dust removed by centrifugation (2000 × g, 5 min). Further dilutions (80 µM) were prepared in PBS with 5% v/v DMSO, and the latter diluent was also used to prepare control (peptide-free) grids. Carbon film 200 mesh copper transmission electron microscope (TEM) grids (Agar Scientific Ltd. Stanstead, UK) were initially functionalized using a glow discharger (K100X; Quorum technologies Ltd. Laughton, UK) under a current of 25 mA for 30 sec. These were then placed onto 10 µl droplets of each test sample solution for 1 min, and then transferred onto 10 µl droplets of 1% w/v uranyl acetate for a further minute. Excess solution was removed using filter paper and sample grids were air dried for at least 1 h. Grids were imaged using a Tecnai™ T12 BioTwin TEM (FEI Company. Hillsboro, USA). Images were cropped and scale bars were added using ImageJ. Images are representative of single independent experiments.
compound,measurement,setting,value
CC(=O)N[C@@H](Cc1c[nH]c2ccccc12)C(=O)N[C@@H](Cc1c[nH]c2ccccc12)C(=O)N[C@@H](Cc1c[nH]c2ccccc12)C(=O)N[C@@H](CCCNC(=N)N)C(=O)N[C@@H](CCCNC(=N)N)C(=O)N[C@@H](CCCNC(=N)N)C(=O)N[C@@H](Cc1c[nH]c2ccccc12)C(N)=O [WWWRRRW] (Ac-WWWRRRW-NH2),IC50,[1]; ATCC 6538,2.9 ± 0.3 µM
RRRRRRR [C-terminal amidation and N-terminal acetylation carried out for all peptides],inhibitory activity (in words),[2],inactive
same,bacterial morphology by SEM,[3]; 80 µM peptide,no discernible change in morphology
same,bacterial morphology by SEM,[3]; 400 µM peptide,no discernible change in morphology
"RRWYRWWR [Y-containing octapeptide similar to RWWRWWR, from the authors' earlier work]",IC50,[4],21 µM
RWWRWWR [C-terminal amidation and N-terminal acetylation],IC50,[5],14 µM
same,inhibitory activity (in words),[2],one of the most active
same,bacterial height by AFM,[6],doubled
same,mean bacterial width by AFM,[6],decreased by a third
same,bacterial morphology by SEM,[3]; 80 µM peptide,"formation of spheroid objects on the surface of the bacteria, indicative of membrane blebbing"
same,bacterial morphology by SEM,[3]; 400 µM peptide,dramatic reduction in the number of intact bacteria
"WRKWRKRWWWRKWRKRWW [ApoEdpL-W, 18mer apoE-derived antimicrobial peptide composed of W, R and K, from the authors' earlier work]",IC50,[4],7 µM
WRWWWWW [library heptapeptide forming substantial aggregates at 800 µM; C-terminal amidation and N-terminal acetylation],visible aggregates by TEM,[7]; 80 µM in PBS with 5% v/v DMSO,not
same,visible aggregates by TEM,[7]; 800 µM in PBS with 5% v/v DMSO,Substantial visible aggregates were present
WWWRRRR [library heptapeptide of W and R; C-terminal amidation and N-terminal acetylation carried out for all peptides],increase of IC50 relative to WWWRRRW,"[1]; one residue changed, organism not given",65 fold
